# Measured values from patent US8796415B2, “Inhibitors of guanine exchange factors and their use as anticancer drugs” (Centre National de la Recherche Scientifique, priority 2009, dated 2014).
# Ends that are not written are not given here.
# Assays:
# [1] = tested on: Dbl mediated RhoA activation; experiment: RhoA activation assay (GST-RBD pull-down) in NIH3T3 cells expressing Dbl; type: cell-based; conditions: GFP-tagged peptide
# Method: FIG. 8 represents the effect of GFP-TRIPE32G on RhoA activation induced by Dbl (left panel) or Tgat (right panel) in NIH3T3 cells, assayed by GST-RBD pulldown. The levels of GTP-bound and total RhoA protein are shown in the upper two panels. Expression levels of Myc-Dbl and of all GFP-tagged proteins are shown in the lower two panels.
# The level of GTP-bound RhoA was measured by a GST pulldown assay as described (Schmidt et al., 2002). Briefly, cell lysates were incubated with glutathione beads coated with the recombinant Rho-binding domain (RBD) of the RhoA specific effector Rhotekin (Cytoskeleton Inc.).
# [2] = tested on: NIH3T3 cells stably expressing GFP-Tgat; experiment: Tumor formation in Balb/c nude mice grafted with NIH3T3 cells expressing Tgat; type: in vivo
# Method: FIG. 10A represents tumor formation in Balb/c nude mice. NIH3T3 cells stably expressing GFP-Tgat/GST or GFP-Tgat/GSTTRIP E32G were injected subcutaneously into the flanks of Balb/c nude mice and tumor volume was measured every week. The graph is representative of the three independent assays that were performed.
# FIG. 10B represents the tumor weights (in grams) after the experiments. Ten weeks post graft, mice were euthanised, tumors were excised and weighed, and the mean tumor weight was plotted on the graph. (*) A paired Student's t-test was performed, matching the samples for each mouse, and the P value was 0.019. Error bars represent standard deviation in all graphs.
# Female Balb/c nu/nu mice were purchased from Charles River France and used at 6-8 weeks of age. 12 Balb/c nu/nu mice were subcutaneously grafted with 2×10^6 cells of each cell line on both sides (Tgat on the left and Tgat+TRIPE32G on the right flank of the leg). The appearance of tumors was scored visually every week. 10 weeks post graft, mice were euthanized and tumors excised and weighed. mRNA and protein levels in the tumors were verified by RT-PCR and Western blot (data not shown).
# [3] = target: T1, p115RhoGEF (Homo sapiens, UniProt Q92888); conditions: shown previously (Schmidt et al., 2002 and unpublished results); cited from earlier work
# T1 construct: GST (N); made in house; host or cells: baculovirus system
# T1 sequence (Q92888 1-912): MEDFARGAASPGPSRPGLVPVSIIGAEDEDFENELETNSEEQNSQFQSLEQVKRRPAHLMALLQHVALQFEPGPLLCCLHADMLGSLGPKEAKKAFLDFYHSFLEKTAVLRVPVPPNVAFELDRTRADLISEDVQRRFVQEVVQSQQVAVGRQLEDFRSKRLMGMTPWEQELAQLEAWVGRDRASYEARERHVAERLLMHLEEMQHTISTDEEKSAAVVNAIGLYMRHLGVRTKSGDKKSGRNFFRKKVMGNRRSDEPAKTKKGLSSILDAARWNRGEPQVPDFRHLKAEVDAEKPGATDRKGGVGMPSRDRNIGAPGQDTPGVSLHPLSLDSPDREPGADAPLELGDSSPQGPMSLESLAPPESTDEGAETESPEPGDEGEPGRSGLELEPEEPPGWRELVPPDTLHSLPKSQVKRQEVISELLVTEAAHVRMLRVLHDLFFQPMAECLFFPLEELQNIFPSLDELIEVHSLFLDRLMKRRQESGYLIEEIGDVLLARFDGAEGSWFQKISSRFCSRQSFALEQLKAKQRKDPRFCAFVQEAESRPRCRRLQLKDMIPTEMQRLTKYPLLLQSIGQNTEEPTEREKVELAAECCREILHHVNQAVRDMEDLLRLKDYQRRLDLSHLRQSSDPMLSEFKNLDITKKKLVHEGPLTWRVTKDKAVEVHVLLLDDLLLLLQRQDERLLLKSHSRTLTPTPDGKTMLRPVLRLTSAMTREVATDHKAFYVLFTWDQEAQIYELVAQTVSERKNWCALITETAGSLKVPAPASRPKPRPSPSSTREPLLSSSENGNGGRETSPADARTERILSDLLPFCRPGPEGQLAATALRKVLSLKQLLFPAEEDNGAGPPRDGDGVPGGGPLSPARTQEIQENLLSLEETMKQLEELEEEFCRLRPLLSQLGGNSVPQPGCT
# [4] = target: T2, Trio DH2-PH2 (Homo sapiens, UniProt O75962); conditions: Schmidt et al., 2002; cited from earlier work
# T2 construct: made in house
# [5] = target: T3, p63RhoGEF (Homo sapiens, UniProt Q86VW2); conditions: shown previously (Schmidt et al., 2002 and unpublished results); cited from earlier work
# T3 construct: GST-p63RhoGEF (DH domain) and GST-RhoG were purified as described previously; GST (N); made in house
# T3 sequence (Q86VW2 160-336 limits assumed): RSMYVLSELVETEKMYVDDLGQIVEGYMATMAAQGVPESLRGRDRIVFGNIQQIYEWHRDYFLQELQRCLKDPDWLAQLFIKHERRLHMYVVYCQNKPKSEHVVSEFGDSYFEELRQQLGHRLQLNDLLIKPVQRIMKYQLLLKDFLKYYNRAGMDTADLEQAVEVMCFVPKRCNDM
# [6] = target: T4, Lbc (Homo sapiens, UniProt Q12802); conditions: shown previously (Schmidt et al., 2002 and unpublished results); cited from earlier work
# T4 construct: GST-Dbl (DH-PH domain), GST-Lbc (DH-PH), GST-p63RhoGEF (DH domain) and GST-RhoG were purified as described previously; GST (N); made in house
# T4 sequence (Q12802 1994-2333): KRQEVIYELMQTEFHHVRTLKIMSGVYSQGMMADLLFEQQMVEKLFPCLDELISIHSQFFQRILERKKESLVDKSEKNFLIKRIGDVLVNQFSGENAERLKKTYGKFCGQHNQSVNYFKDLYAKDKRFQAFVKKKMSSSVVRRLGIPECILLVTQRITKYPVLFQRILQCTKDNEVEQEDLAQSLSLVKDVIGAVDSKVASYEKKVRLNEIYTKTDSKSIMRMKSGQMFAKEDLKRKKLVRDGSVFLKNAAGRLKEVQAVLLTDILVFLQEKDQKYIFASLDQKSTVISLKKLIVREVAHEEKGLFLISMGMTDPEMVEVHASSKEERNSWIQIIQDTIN
# [7] = tested on: Dbl; conditions: shown previously (Schmidt et al., 2002 and unpublished results); cited from earlier work
# Chain of Dbl (P10911 495-809 limits assumed): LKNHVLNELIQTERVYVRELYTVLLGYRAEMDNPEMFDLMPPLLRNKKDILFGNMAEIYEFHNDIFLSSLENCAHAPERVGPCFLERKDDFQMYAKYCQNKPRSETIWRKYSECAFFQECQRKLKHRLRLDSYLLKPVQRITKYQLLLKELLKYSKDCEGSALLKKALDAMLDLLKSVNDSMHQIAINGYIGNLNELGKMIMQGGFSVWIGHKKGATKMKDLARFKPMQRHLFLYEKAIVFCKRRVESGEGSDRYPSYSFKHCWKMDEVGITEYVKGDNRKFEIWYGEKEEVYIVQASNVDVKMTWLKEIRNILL
Substance,inhibition of oncogenic Dbl mediated RhoA activation in intact cells [1],"number of mice with tumors ([2]; 12 mice grafted subcutaneously, peptide co-expressed with Tgat, Tgat alone ten out of twelve)","delay in the formation of tumors ([2]; peptide co-expressed with Tgat, versus Tgat alone)","weight of the tumors ([2]; ten weeks post graft, paired Student's t-test P value 0.019)",activity on p115RhoGEF [3],inhibition of Trio DH2-PH2 activation of RhoA [4],activity on p63RhoGEF [5],activity on Lbc [6],activity on Dbl [7]
GST-TRIPE32G (AREGADGAICGYNLATLVMLGPSERVFCPLCGPCSSDIYELM; cysteine pairing not given here; also: GST fusion),not able to inhibit RhoA activation by Dbl,seven,about three,significantly reduced,–,–,–,–,–
AREGADGAICGYNLATLVMLGPSERVFCPLCEPCSSDIYELM [TRIPα],–,–,–,–,not active,inhibits its activation of RhoA both in vitro and in intact cells,not active,not active,not active
